From US20100129297A1, “USE OF AN AQUEOUS GRAPE SEED EXTRACT COMBINED WITH AT LEAST ONE FLUORINE SALT TO COMBAT THE FORMATION OR ACCUMULATION OF DENTAL BIOFILM AND COMPOSITIONS COMPRISING SAID COMBINATION” (priority 2007, published 2010)

Legend:
[1] = tested on: Porphyromonas; test: Preventive action on an experimental buccal biofilm model, Porphyromonas count; type: cell-based, Porphyromonas gingivalis ATCC 33277; conditions: fluorinol compared with NaF, each combined with grape seed extract
Method: The bacterial strains used are: • Streptococcus mutans ATCC 25175 • Streptococcus sobrinus ATCC 33478 • Porphyromonas gingivalis ATCC 33277
These different bacteria, cultivated in their specific medium, are inoculated into 10 mL of universal culture medium FUM (Fluid Universal Medium, composition of the medium in Annex 1), and then incubated in anaerobiosis at 37° C. for 24 hours.
After checking the purity with a microscope, the series of cultures are independently adjusted to OD550 1.0±0.05 (i.e. about 10^7 cells per milliliter) by dilutions with FUM. […]
Serial dilutions to 1:10 of this cell suspension are carried out until concentrations of 10^−2 and 10^−4 are obtained, and then 50 μL of these dilutions are spread over the 4 specific geloses used: mitis salivarius agar, MRS, wilkins chalgren agar (WCA) and blood geloses. The geloses are then placed in anaerobiosis at 37° C. for 48-72 hours and the then the number of formed colonies for each species is counted. […]
The number of colonies formed after 48-72 hours of incubation of the molecules with bacterial biofilms is expressed, after counting, in Colony Forming Units per analyzed Biofilm (or CFU/Biofilm) by the formula:
[Number of counted colonies×dilution factor (10^2 to 10^4)]/Inoculum volume (0.05 mL) […]

[2] = tested on: glucosyl transferases (GTF); test: Inhibition of glucosyl transferases (GTF): initial reaction rate, released fructose (DNS test); type: biochemical, Streptococcus sobrinus ATCC 33478
Method: A strain of Streptococcus sobrinus ATCC 33478 is placed in 1 liter of BHI (brain heart infusion) medium enriched in glucose (10 g/L final concentration) in anaerobiosis at 37° C. for 18 hours. This bacterial medium, the pH of which was brought back to 6.5 by means of a NaOH 1N solution, is then centrifuged for 30 minutes at 8,000 rpm at 4° C. The glucosyl transferase, present in the supernatant is concentrated by precipitation with ammonium sulfate. The latter (50% w/saturation v) is gradually added to the supernatant held at 4° C. under stirring for 30 minutes. The mixture is then centrifuged at 8,000 rpm, 4° for 30 minutes. […]
(§1) The results are expressed as inhibition percentages relatively to control solutions (ultra pure water): • the inhibition percentage of the initial rate of the enzymatic reaction (noted as “fructose” in the following table of results) on the one hand • the inhibition percentage of formation of insoluble glucan produced after 24 hours of incubation at 37° C. […]
Dextran interferes on the whole of the colorimetric methods for assaying proteins, because dextran particles diffract light and generate parasitic absorbance. The amount of glucosyl transferase is therefore measured by its activity under standard conditions. […]

[3] = tested on: glucosyl transferases (GTF); test: Inhibition of glucosyl transferases (GTF): amount of synthesized insoluble glucan (weighing); type: biochemical, Streptococcus sobrinus ATCC 33478; conditions: 24 hours at 37° C.
Method: A strain of Streptococcus sobrinus ATCC 33478 is placed in 1 liter of BHI (brain heart infusion) medium enriched in glucose (10 g/L final concentration) in anaerobiosis at 37° C. for 18 hours. This bacterial medium, the pH of which was brought back to 6.5 by means of a NaOH 1N solution, is then centrifuged for 30 minutes at 8,000 rpm at 4° C. The glucosyl transferase, present in the supernatant is concentrated by precipitation with ammonium sulfate. The latter (50% w/saturation v) is gradually added to the supernatant held at 4° C. under stirring for 30 minutes. The mixture is then centrifuged at 8,000 rpm, 4° for 30 minutes. The pellet, rich in glucosyl transferase, is then taken up with phosphate/potassium K2HPO4 buffer (10 mM, pH 10.5), dialyzed (MWC 6-8000; width 14.6 mm) for 16 hours and then frozen at −20° C. This is the solution of purified GTF. […]
as §1
The amount of soluble glucan is measured 24 hours after the beginning of the enzymatic reaction. […]

What does the source list for `F.OCc1cccnc1` [fluorinol, 3-pyridyl methanol hydrofluoride]?
effect of potentialization of the grape seed extract on Porphyromonas [1]: larger than that of NaF; inhibition percentage of the initial enzymatic reaction (fructose) ([2]; fluorinol alone 0.68%): 10.3%; inhibition percentage of the initial enzymatic reaction (fructose) ([2]; fluorinol alone 1.02%): 20.6%; synthesis of insoluble glucan ([3]; fluorinol alone 0.68%): inefficient; synthesis of insoluble glucan ([3]; fluorinol alone 1.02%): inefficient
